The assay addresses T1, α7-subtype of nicotinic receptors (Rattus norvegicus, UniProt Q05941).
T1 construct: Cerebral cortices from male Wistar rats (150-250 g) are homogenised; from tissue; host or cells: rat cerebral cortex membrane homogenate (male Wistar rats)
The assay is described as follows: In vitro inhibition of 3H-α-bungarotoxine binding in rat brain. Conditions: rat cerebral cortex homogenate; 3H-α-bungarotoxine 2 nM; 2 hours at 37° C.

Structures can show the parent of a compound that is named as a salt.

T1 sequence (Q05941 23-502): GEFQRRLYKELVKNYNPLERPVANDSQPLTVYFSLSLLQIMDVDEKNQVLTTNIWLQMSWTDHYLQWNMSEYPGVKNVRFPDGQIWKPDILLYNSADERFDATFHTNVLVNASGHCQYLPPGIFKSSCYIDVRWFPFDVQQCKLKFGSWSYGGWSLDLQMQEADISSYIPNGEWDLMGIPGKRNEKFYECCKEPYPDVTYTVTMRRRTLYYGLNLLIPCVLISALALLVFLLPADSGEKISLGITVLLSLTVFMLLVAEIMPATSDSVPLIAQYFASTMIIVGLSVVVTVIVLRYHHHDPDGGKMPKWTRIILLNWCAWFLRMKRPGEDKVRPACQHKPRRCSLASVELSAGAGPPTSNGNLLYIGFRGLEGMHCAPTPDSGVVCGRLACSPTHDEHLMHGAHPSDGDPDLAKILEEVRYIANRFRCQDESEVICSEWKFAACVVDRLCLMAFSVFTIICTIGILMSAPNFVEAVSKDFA

For `c1ccc2c(c1)ncn2C1CN2CCC1CC2` (racemic) [Compound A1, (±)-3-(1-Benzimidazolyl)-quinuclidine fumaric acid salt], the IC50 (usually the point on the concentration scale where inhibition reaches its midpoint) came out at 0.4 µM.

Values taken from patent publication US7332507B2, “3-substituted quinuclidines and their use” (Neurosearch A/S, priority 2002, dated 2008).
